{"source": "patent US7531320B2", "about": "“Modulation of β-catenin/TCF-activated transcription” (priority 2003, dated 2009)", "key": {"[1]": {"target": "T1, CBP (1-111) (Mus musculus, UniProt P45481)", "T1 construct": "6xHis (C); HSV tag (C); expressed in transfected cells", "T1 sequence (P45481 1-110)": "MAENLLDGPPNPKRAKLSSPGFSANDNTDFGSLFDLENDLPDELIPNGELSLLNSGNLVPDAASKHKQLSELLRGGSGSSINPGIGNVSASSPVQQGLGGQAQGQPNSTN", "assay": "Pull-down of CBP deletion constructs on COMPOUND 2 coated beads, competition with excess COMPOUND 1", "format": "binding", "settings": "CBP (1-111), (1-211), (1-351) in SW480 lysates, 150 μM COMPOUND 1"}, "[2]": {"test_system": "cyclin D1", "assay": "Real Time RT-PCR in SW480 cells, cyclin D1", "format": "cell-based, human", "settings": "25 μM; for ΔCT cyclin D1: relative to β-actin", "experimental": "The RNeasy Midi Kit (Qiagen) was used for RNA extraction and Real Time RT-PCR was performed according to the protocol provided with the SYBR Green PCR Master Mix Kit (Perkin Elmer Biosystems, Shelton, Conn.). The primers used for cyclin D1, axin2, hnkd, c-myc, c-jun, and fra-1 amplifications were: cyclin D1 forward primer:5′-[…]-CCTGCTG-3′ (SEQ ID NO: 32) reverse primer: 5′-[…]-3′ (SEQ ID NO: 33) leading to a product size of approximately 300 bp; axin2 forward primer: 5′-[…] GGAAA-CT-3′ (SEQ ID NO: 34) and reverse primer: 5′-[…]-GAGA-3′ (SEQ ID NO: 35); hnkd forward primer: 5′-[…] TTGCGT-3′ (SEQ ID NO: 36) and the reverse primer: 5′-[…] ACGT-3′ (SEQ ID NO: 37); c-myc forward primer: 5′-GAA-[…] CTGC-3′ (SEQ ID NO: 38) and reverse primer: 5′-[…]-G-3′ (SEQ ID NO: 39); c-jun forward primer: 5′-[…]-3′ (SEQ ID NO: 40) and reverse primer: 5′-[…]-3′ (SEQ ID NO: 41); fra-1 forward primer: 5′-ACC-[…]-[…]-3′ (SEQ ID NO: 42) and reverse primer: 5′-[…]-TT-3′ (SEQ ID NO: 43). β-actin was used for normalization. […]\n1 μg of mRNA, for each time point, was subjected to Real Time RT-PCR. Expression level of endogenous cyclin D1, c-myc, fibronectin, hnkd, axin2, c-jun, and BMP-4 were measured relative to β-actin. Quantitation of The ΔCycle of Threshold (CT) values was determined by subtracting the average values of each set by the corresponding average values obtained for β-actin. […]\nThe cyclin D1 gene is inappropriately expressed in many different tumor types, and is known to be a direct target of the Wnt/β-catenin pathway (Shtutman et al., “The cyclin D1 gene is a target of the beta-catenin/LEF-1 pathway,” Proc. Natl. Acad. Sci. USA 96:5522-27 (1999); Tetsu et al., “Beta-catenin regulates expression of cyclin D1 in colon carcinoma cells,” Nature 398:422-26 (1999)). […] Expression level of endogenous cyclin D1, c-myc, fibronectin, hnkd, axin2, c-jun, and BMP-4 were measured relative to β-actin. Quantitation of The ΔCycle of Threshold (CT) values was determined by subtracting the average values of each set by the corresponding average values obtained for β-actin. […]"}, "[3]": {"test_system": "caspase-3/7 in CCD18Co cells", "assay": "Caspase-3/7 activity assay, normal colonocytes CCD18Co", "format": "cell-based, human", "settings": "25 μM, 24 hours", "experimental": "FIG. 6. • A. COMPOUND 1 arrests cells in G1. FACS analysis was performed on SW480 (lower panel) and HCT116 (upper panel) cells treated for 24 hours with either COMPOUND 1 (25 μM) (right) or control (0.5% DMSO (left). 5.5×10^6 cells were fixed and stained with propidium iodide (PI). G0/G1, S, and G2/M are indicated by arrows. • B. COMPOUND 1 selectively activates caspases in colon carcinoma cell lines. SW480 and HCT116 (left graph) cells (10^5) along with the normal colonocytes, CCD18Co (right graph) were treated with either control (0.5% DMSO) or COMPOUND 1 (25 μM). 24 hours post treatment, cells were lysed and the caspase-3/7 enzymatic activities were measured. Relative fluorescence units (RFU) were calculated by subtracting the unit values of the blank (control, without cells) from the treated samples (COMPOUND 1 or control) and plotted.\nSW480, HCT116, and CCD18Co cells were plated at 10^5 cells per well (96-well plates) for 24 hours prior to treatment. 25 μM of COMPOUND 1 or control (0.5% DMSO) was added to each well. 24 hours post treatment, cells were lysed and caspase activity was measured using a caspase-3/7 activity kit (Apo-One Homogeneous caspase-3/7 assay, #G77905, Promega). Relative fluorescence units (RFU) were obtained by subtracting the unit values of the blank (control, without cells) from the experimental measured values. […]"}}}
{"smiles": "O=C1C(Cc2ccc(O)cc2)N2C(=O)CCN(C(=O)NCc3ccccc3)C2CN1Cc1cccc2ccccc12", "note": "(centres unmarked) [COMPOUND 1]", "values": [{"measurement": "Competition of CBP fragment binding to COMPOUND 2 beads by excess COMPOUND 1", "setting": "[1]", "value": "strongly competed away"}, {"measurement": "mRNA cyclin D1 (direction)", "setting": "[2]", "value": "↓"}, {"measurement": "ΔCT cyclin D1", "setting": "[2]; 4 hours", "value": 0.6}, {"measurement": "ΔCT cyclin D1", "setting": "[2]; 24 hours", "value": 3.1}, {"measurement": "Caspase activation", "setting": "[3]", "value": "not in normal colonocytes"}]}
